{"source": "paper PMC6934085", "about": "(Science signaling, 2019)", "key": {"[1]": {"target": "T1, hNOP receptor (Homo sapiens, UniProt P41146)", "T1 sequence (P41146 whole entry)": "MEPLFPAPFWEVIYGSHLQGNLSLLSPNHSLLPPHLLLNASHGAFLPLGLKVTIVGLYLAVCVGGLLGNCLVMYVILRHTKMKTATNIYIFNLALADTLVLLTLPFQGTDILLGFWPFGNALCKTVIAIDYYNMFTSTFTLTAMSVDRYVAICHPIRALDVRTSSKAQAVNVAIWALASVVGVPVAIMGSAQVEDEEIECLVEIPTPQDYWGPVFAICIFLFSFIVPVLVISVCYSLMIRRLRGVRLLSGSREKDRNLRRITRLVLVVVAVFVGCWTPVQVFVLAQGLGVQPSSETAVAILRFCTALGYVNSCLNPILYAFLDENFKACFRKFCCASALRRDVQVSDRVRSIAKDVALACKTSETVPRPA", "type": "cell-based"}, "[2]": {"target": "T1, hNOP receptor", "type": "cell-based", "remark": "listed apart in the source"}, "[3]": {"target": "T2, NOP receptor (Mus musculus, UniProt P35377)", "T2 sequence (P35377 whole entry)": "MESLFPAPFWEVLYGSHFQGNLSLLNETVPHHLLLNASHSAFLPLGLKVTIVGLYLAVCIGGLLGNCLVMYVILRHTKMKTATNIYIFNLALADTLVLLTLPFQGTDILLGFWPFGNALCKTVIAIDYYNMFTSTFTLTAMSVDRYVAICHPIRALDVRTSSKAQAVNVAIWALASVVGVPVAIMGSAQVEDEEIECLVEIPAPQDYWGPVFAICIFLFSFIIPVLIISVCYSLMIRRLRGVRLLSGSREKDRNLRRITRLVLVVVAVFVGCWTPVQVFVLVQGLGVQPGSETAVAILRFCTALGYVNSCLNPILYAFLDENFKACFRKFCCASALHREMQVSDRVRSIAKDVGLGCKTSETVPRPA", "type": "cell-based"}, "[4]": {"test_system": "NOP receptor", "details": "cited from earlier work"}, "[5]": {"target": "T2, NOP receptor", "assay": "In vivo NOP receptor phosphorylation in brain of NOP-eGFP knock-in mice", "details": "SB 612111 30 mg/kg pretreatment 30 min, then AT-202 30 mg/kg"}}, "data": [{"compound": "CN1CCc2cc(Cl)c(O)cc2[C@@H](c2ccccc2)C1", "note": "[SCH23390]", "values": [{"measurement": "Effect on N/OFQ-induced hyperpolarization", "setting": "[1]", "value": "reversed the N/OFQ-evoked hyperpolarization"}]}, {"compound": "C=C[C@@]1(C)CC(=O)[C@]2(O)[C@@]3(C)[C@@H](O)CCC(C)(C)[C@@H]3[C@H](O)[C@H](OC(C)=O)[C@@]2(C)O1", "note": "[Forskolin, forskolin]", "values": [{"measurement": "NOP receptor phosphorylation by second messenger kinase activators", "setting": "[2]", "value": "did not produce any detectable phosphorylation"}]}, {"compound": "CC1(N2CCC(n3c([C@@H]4CCCNC4)nc4ccccc43)CC2)CCCCCCC1", "note": "[MCOPPB]", "values": [{"measurement": "NOP receptor internalization in ventral midbrain neurons", "setting": "[3]", "value": "strong MCOPPB-induced NOP receptor internalization"}]}, {"compound": "buprenorphine", "values": [{"measurement": "Agonist-induced NOP receptor phosphorylation at Ser346, Ser351 and Thr362/Ser363", "setting": "[2]", "value": "complete lack of NOP receptor phosphorylation"}, {"measurement": "Agonist activity in G protein signaling / GIRK channel activation", "setting": "[1]", "value": "partial agonistic activity with a remarkably reduced maximal effect compared with N/OFQ"}, {"measurement": "Agonist efficacy at the NOP receptor in cAMP inhibition assays", "setting": "[4]", "value": "partial agonists"}]}, {"compound": "Cc1cccc2c1CC[C@H](CN1CCC(c3c(Cl)cccc3Cl)CC1)C[C@@H]2O", "note": "[SB 612111, (−)-cis-1-methyl-7-[[4-(2,6-dichlorophenyl)piperidin-1-yl]methyl]-6,7,8,9-tetrahy dro-5H-benzocyclohepten-5-ol]", "values": [{"measurement": "Inhibition of N/OFQ-induced NOP receptor phosphorylation", "setting": "[2]", "value": "completely blocked N/OFQ-induced phosphorylation"}, {"measurement": "Block of AT-202-induced NOP receptor phosphorylation in mouse brain", "setting": "[5]", "value": "could be blocked"}]}]}
